# Assays:
# Test in all cases: relative viability (nuclei count vs DMSO), 5 days (fraction); higher = more cells survive
# A-427 = test system: A-427
# Procedure, shortened: (§1)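 Nuclei were stained with Hoechst during a one-step fixation (final 0.05% Triton X-100, 1% formaldehyde, 1 ug/ml Hoechst) carried out 5 days after dosing, then counted on 4× images. The cells, lung cancer lines in 1536-well plates, had been dosed by pin tool the day after seeding with one drug alone or a fixed anchor-drug dose plus five library-drug doses (not always all listed) in √10 steps. Relative viability is the nuclei count in treated wells divided by that in vehicle wells, and each value is the median of duplicate plates.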
# CAL-12T = test system: CAL-12T
# Procedure, shortened: as §1
# COR-L 105 = test system: COR-L 105
# Procedure, shortened: as §1
# EPLC-272H = test system: EPLC-272H
# Procedure, shortened: as §1
# HCC-15 = test system: HCC-15
# Procedure, shortened: as §1
# HCC-44 = test system: HCC-44
# Procedure, shortened: as §1
# LC-2-ad = test system: LC-2-ad
# Procedure, shortened: as §1
# LCLC-97TM1 = test system: LCLC-97TM1
# Procedure, shortened: as §1
# NCI-H1395 = test system: NCI-H1395
# Procedure, shortened: as §1
# NCI-H1563 = test system: NCI-H1563
# Procedure, shortened: as §1
# NCI-H1734 = test system: NCI-H1734
# Procedure, shortened: as §1
# NCI-H1792 = test system: NCI-H1792
# Procedure, shortened: as §1
# NCI-H1915 = test system: NCI-H1915
# Procedure, shortened: as §1
# NCI-H1975 = test system: NCI-H1975
# Procedure, shortened: as §1
# NCI-H2023 = test system: NCI-H2023
# Procedure, shortened: as §1
# NCI-H2347 = test system: NCI-H2347
# Procedure, shortened: as §1
# NCI-H2405 = test system: NCI-H2405
# Procedure, shortened: as §1
# NCI-H520 = test system: NCI-H520
# Procedure, shortened: as §1
# NCI-H838 = test system: NCI-H838
# Procedure, shortened: as §1
# SW 1573 = test system: SW 1573
# Procedure, shortened: as §1
# UMC-11 = test system: UMC-11
# Procedure, shortened: as §1
smiles,measurement,setting,value
CN1CCN(CCOc2cc(OC3CCOCC3)c3c(Nc4c(Cl)ccc5c4OCO5)ncnc3c2)CC1 [Saracatinib] + Cc1nc(NC(=O)N2CCC[C@H]2C(N)=O)sc1-c1ccnc(C(C)(C)C(F)(F)F)c1 [Alpelisib] (partner 2 µM),relative viability,A-427; first compound 0.02 µM,1.09
same,relative viability,A-427; first compound 0.2 µM,0.916
same,relative viability,A-427; first compound 0.6325 µM,1.07
same,relative viability,A-427; first compound 2 µM,1.01
same,relative viability,CAL-12T; first compound 0.02 µM,1.28
same,relative viability,CAL-12T; first compound 0.2 µM,1.06
same,relative viability,CAL-12T; first compound 0.6325 µM,1.33
same,relative viability,CAL-12T; first compound 2 µM,0.927
same,relative viability,COR-L 105; first compound 0.02 µM,0.91
same,relative viability,COR-L 105; first compound 0.2 µM,0.96
same,relative viability,COR-L 105; first compound 0.6325 µM,0.7
same,relative viability,COR-L 105; first compound 2 µM,0.416
same,relative viability,EPLC-272H; first compound 0.02 µM,1.03
same,relative viability,EPLC-272H; first compound 0.2 µM,0.732
same,relative viability,EPLC-272H; first compound 0.6325 µM,0.942
same,relative viability,EPLC-272H; first compound 2 µM,0.821
same,relative viability,HCC-15; first compound 0.02 µM,0.889
same,relative viability,HCC-15; first compound 0.2 µM,0.641
same,relative viability,HCC-15; first compound 0.6325 µM,0.808
same,relative viability,HCC-15; first compound 2 µM,0.759
same,relative viability,HCC-44; first compound 0.02 µM,0.859
same,relative viability,HCC-44; first compound 0.2 µM,0.658
same,relative viability,HCC-44; first compound 0.6325 µM,0.874
same,relative viability,HCC-44; first compound 2 µM,0.862
same,relative viability,LC-2-ad; first compound 0.02 µM,0.903
same,relative viability,LC-2-ad; first compound 0.6325 µM,0.882
same,relative viability,LC-2-ad; first compound 2 µM,0.691
same,relative viability,LCLC-97TM1; first compound 0.02 µM,0.198
same,relative viability,LCLC-97TM1; first compound 0.2 µM,0.195
same,relative viability,LCLC-97TM1; first compound 0.6325 µM,0.357
same,relative viability,LCLC-97TM1; first compound 2 µM,0.282
same,relative viability,NCI-H1395; first compound 0.02 µM,1.6
same,relative viability,NCI-H1395; first compound 0.2 µM,1.06
same,relative viability,NCI-H1395; first compound 0.6325 µM,0.956
same,relative viability,NCI-H1395; first compound 2 µM,0.851
same,relative viability,NCI-H1563; first compound 0.02 µM,0.992
same,relative viability,NCI-H1563; first compound 0.2 µM,0.882
same,relative viability,NCI-H1563; first compound 0.6325 µM,0.725
same,relative viability,NCI-H1563; first compound 2 µM,0.693
same,relative viability,NCI-H1734; first compound 0.02 µM,0.669
same,relative viability,NCI-H1734; first compound 0.6325 µM,0.646
same,relative viability,NCI-H1734; first compound 2 µM,0.507
same,relative viability,NCI-H1792; first compound 0.02 µM,0.706
same,relative viability,NCI-H1792; first compound 0.2 µM,0.492
same,relative viability,NCI-H1792; first compound 0.6325 µM,0.929
same,relative viability,NCI-H1792; first compound 2 µM,0.608
same,relative viability,NCI-H1915; first compound 0.02 µM,1.04
same,relative viability,NCI-H1915; first compound 0.2 µM,0.552
same,relative viability,NCI-H1915; first compound 0.6325 µM,1.07
same,relative viability,NCI-H1915; first compound 2 µM,1.01
same,relative viability,NCI-H1975; first compound 0.02 µM,0.671
same,relative viability,NCI-H1975; first compound 0.6325 µM,0.585
same,relative viability,NCI-H1975; first compound 2 µM,0.367
same,relative viability,NCI-H2023; first compound 0.02 µM,0.62
same,relative viability,NCI-H2023; first compound 0.2 µM,0.409
same,relative viability,NCI-H2023; first compound 0.6325 µM,0.485
same,relative viability,NCI-H2023; first compound 2 µM,0.364
same,relative viability,NCI-H2347; first compound 0.02 µM,1.03
same,relative viability,NCI-H2347; first compound 0.2 µM,0.835
same,relative viability,NCI-H2347; first compound 0.6325 µM,1.12
same,relative viability,NCI-H2347; first compound 2 µM,0.902
same,relative viability,NCI-H2405; first compound 0.02 µM,0.796
same,relative viability,NCI-H2405; first compound 0.2 µM,0.821
same,relative viability,NCI-H2405; first compound 0.6325 µM,0.413
same,relative viability,NCI-H2405; first compound 2 µM,0.284
same,relative viability,NCI-H520; first compound 0.02 µM,0.901
same,relative viability,NCI-H520; first compound 0.2 µM,0.779
same,relative viability,NCI-H520; first compound 0.6325 µM,0.545
same,relative viability,NCI-H520; first compound 2 µM,0.493
same,relative viability,NCI-H838; first compound 0.02 µM,0.993
same,relative viability,NCI-H838; first compound 0.2 µM,0.929
same,relative viability,NCI-H838; first compound 0.6325 µM,0.771
same,relative viability,NCI-H838; first compound 2 µM,0.803
same,relative viability,SW 1573; first compound 0.02 µM,0.83
same,relative viability,SW 1573; first compound 0.2 µM,0.689
same,relative viability,SW 1573; first compound 0.6325 µM,0.833
same,relative viability,SW 1573; first compound 2 µM,0.51
same,relative viability,UMC-11; first compound 0.02 µM,0.99
same,relative viability,UMC-11; first compound 0.6325 µM,1.03
same,relative viability,UMC-11; first compound 2 µM,0.768

# From the supplement of paper PMC10307832
